Reference: ChEMBL document CHEMBL2401655, “Synthesis and antiprotozoal activity of novel 2-{[2-(1H-imidazol-1-yl)ethyl]sulfanyl}-1H-benzimidazole derivatives” (Bioorg Med Chem Lett, 2013)

How the values were obtained:
Format in all cases: functional, organism-based
Entamoeba histolytica = test: Antiprotozoal activity against trophozoite stage of Entamoeba histolytica HM-1:IMSS assessed as growth inhibition after 48 hrs by haemocytometric analysis
Giardia intestinalis = test: Antiprotozoal activity against trophozoite stage of Giardia intestinalis IMSS:0981:1 assessed as growth inhibition after 48 hrs by haemocytometric analysis; conditions: Giardia duodenalis, IMSS:0981:1, 48 h
Trichomonas vaginalis = test: Antiprotozoal activity against trophozoite stage of Trichomonas vaginalis GT3 assessed as growth inhibition after 48 hrs by haemocytometric analysis; conditions: GT3, 48 h

Row | Compound | IC50 (Entamoeba histolytica) | IC50 (Giardia intestinalis) | IC50 (Trichomonas vaginalis)
1 | Cc1ncc([N+](=O)[O-])n1CCO [METRONIDAZOLE] | 380 nM |  | 
2 | CCOc1cc2nc(SCCn3ccnc3)n(C)c2cc1Cl | 14.8 nM | 20.8 nM | 98 nM
3 | COC(=O)c1ccc2c(c1)nc(SCCn1ccnc1)n2C | 42.7 nM | 61.6 nM | 77.4 nM
4 | Clc1cc2nc(SCCn3ccnc3)[nH]c2cc1Cl | 59.1 nM | 76.6 nM | 140 nM
5 | Cn1c(SCCn2ccnc2)nc2cc(Cl)c(Cl)cc21 | 64.2 nM | 68.8 nM | 96.3 nM
6 | COC(=O)c1cc2nc(SCCn3ccnc3)[nH]c2cc1Cl | 57.9 nM | 54.9 nM | 72.7 nM
7 | CCOc1ccc2nc(SCCn3ccnc3)n(C)c2c1 | 40.8 nM | 45.2 nM | 71.7 nM
8 | Cn1c(SCCn2ccnc2)nc2cc(Cl)ccc21 | 66 nM | 66.6 nM | 135 nM
9 | CCOc1cc2c(cc1Cl)nc(SCCn1ccnc1)n2C | 46 nM | 35.6 nM | 69.8 nM
10 | Cn1c(SCCn2ccnc2)nc2ccccc21 | 77.4 nM | 87.1 nM | 149 nM
11 | CCOc1cc2nc(SCCn3ccnc3)[nH]c2cc1Cl | 62 nM | 46.5 nM | 99.1 nM
12 | c1ccc2[nH]c(SCCn3ccnc3)nc2c1 | 147 nM | 117 nM | 178 nM
13 | COC(=O)c1ccc2nc(SCCn3ccnc3)n(C)c2c1 | 52.2 nM | 56.9 nM | 114 nM
14 | COC(=O)c1cc2nc(SCCn3ccnc3)n(C)c2cc1Cl | 51.3 nM | 44.2 nM | 92.6 nM
15 | CCOc1ccc2[nH]c(SCCn3ccnc3)nc2c1 | 42.8 nM | 56.6 nM | 71.7 nM
16 | COC(=O)c1cc2c(cc1Cl)nc(SCCn1ccnc1)n2C | 42.8 nM | 55.6 nM | 86.9 nM
17 | Cn1c(SCCn2ccnc2)nc2ccc(Cl)cc21 | 67.2 nM | 62.6 nM | 128 nM
18 | CCOc1ccc2c(c1)nc(SCCn1ccnc1)n2C | 29.8 nM | 8.3 nM | 76.1 nM
19 | COC(=O)c1ccc2[nH]c(SCCn3ccnc3)nc2c1 | 61.2 nM | 77.7 nM | 111 nM
20 | Clc1ccc2[nH]c(SCCn3ccnc3)nc2c1 | 73.5 nM | 80.7 nM | 170 nM
